Results on two molecules are retold here after US20200163882A1, “Solid Pharmaceutical Compositions Of Androgen Receptor Antagonists” (Lek Pharmaceuticals d.d., priority 2014, published 2020).

For data set [1] the following is noted: cited from earlier work; for Solubility in water: water between pH 1 and 11.
For data set [2] the following is noted: first clinical trials, similar daily doses; cited from earlier work.
For data set [3] the following is noted: physiologic pH range; cited from earlier work.
Data set [4] is described as follows: Solubility of Enzalutamide in surfactants. The format is physicochemical. The protocol:
In the first reference test formulation, 12 mg of Enzalutamide was completely dissolved in 0.27 ml of Labrasol. In second reference test formulations 12 mg of Enzalutamide is completely dissolved in 0.27 ml of Tween 80. In third reference test formulation, 12 mg of Enzalutamide is completely dissolved in 0.27 ml of Tween 80 and 0.15 mg of HPMC has been added. It should be noted that solubility of Enzalutamide is about the same in Tween and in Labrasol ([…] of Enzalutamide per 1 ml of either Tween 80 or Labrasol). The three test formulations were dissolved in 15 ml of pH 6.8 phosphate buffer and Enzalutamide concentration was measured at time points from 10 to 360 minutes.

On to `CNC(=O)c1ccc(N2C(=S)N(c3cnc(C#N)c(C(F)(F)F)c3)C(=O)C23CCC3)cc1F` [ARN-509, 4-[7-[6-Cyano-5-(trifluoromethyl)pyridin-3-yl]-8-oxo-6-thioxo-5,7-diazaspiro[3.4]octan-5-yl]-2-fluoro-N-methylbenzamide], for which, in data set [1], the “Solubility in N-methyl-2-pyrrolidone (NMP)” value is “soluble”, the “Solubility in absolute ethanol” value is recorded as “sparingly soluble”, the Solubility in acetone result is “soluble” and the Solubility in water result was “practically insoluble”. In addition, in data set [2], the “Effectiveness versus Enzalutamide” value is “more effective than Enzalutamide”. For the same molecule, the Ionisation state entry in data set [3] was “remain unionized”.
For `CNC(=O)c1ccc(N2C(=S)N(c3ccc(C#N)c(C(F)(F)F)c3)C(=O)C2(C)C)cc1F` [Enzalutamide, 4-{3-[4-Cyano-3-(trifluoromethyl)phenyl]-5,5-dimethyl-4-oxo-2-thioxoimidazolidin-1-yl}-2-fluoro-N-methylbenzamide], in data set [1], the “Solubility in N-methyl-2-pyrrolidone (NMP)” value was “soluble”, the “Solubility in absolute ethanol” value is listed as “sparingly soluble”, the Solubility in acetone entry is given as “soluble” and the Solubility in water result is recorded as “practically insoluble”. Also, the Ionisation state entry in data set [3] was “remain unionized”. In addition, the “Solubility of Enzalutamide in Labrasol” value in data set [4] (Labrasol) is listed as “about 36 mg per 1 ml”. Also, the “Solubility of Enzalutamide in Tween 80” value in data set [4] (Tween 80) is “about 36 mg per 1 ml”.
